This note sets out measurements from US20250011404A1, “TARGETING APOE ENHANCES T-CELL KILLING IN CANCER IMMUNOTHERAPY” (Children's National Medical Center, priority 2021, published 2025).

The test system of the series is mouse apoE gene. The series can be described thus: gRNA screening by next generation sequencing for INDEL frequency in B16-F10 cells. Format: cell-based. Conditions: RNP electroporated into B16-F10 cells; NGS. Here is the method: Six guide RNAs (gRNAs) were designed using IDT's gRNA design tool, targeting the mouse apoE gene. gRNAs were synthesized as 2-part crRNA: tracrRNA gRNAs with chemical modifications (Integrated DNA Technologies, Inc., IA) and were functionally screened by next generation sequencing (NGS) for high INDEL (insertion/deletion) frequency and low in-frame INDEL rates. gRNAs were prepared by complexing a 1:1 molar ratio of the crRNA: tracrRNA at a final concentration of 100 μM, heating to 95° C. and slowly cooling to room temperature. […]
The electroporated cells were plated in 1 well of a 6-well plate and allowed to grow until confluent. The cells were then dissociated by trypsinization, resuspended in media, and counted. […] The genomic DNA from each well was subject to quantification of total editing and analysis of INDEL profile by NGS to confirm a monoclonal isolate.
Genomic DNA libraries for sequencing were prepared using IDT rhAmpSeq targeted amplification. […] Libraries were purified using Agencourt® AMPure® XP system (Beckman Coulter, Brea, CA, USA) with a 1:1 ratio of beads to reaction by volume and quantified with quantitative real-time PCR (qPCR) before loading onto the Illumina® MiSeq platform (Illumina, San Diego, CA, USA). Paired end 150 base pair reads were sequenced using V2 chemistry. A sequencing depth of at least 1000 reads was obtained for each sample. […]

For the sequence “GGACACTATGACGGAAGTAA (listed as DNA, chemistry not given here) [Mm. Cas9.APOE.1-E]”, the INDEL frequency was found to be 99% and the “in-frame INDELs” value is recorded as “no”.
